Experimental data as given in patent US20030032003A1, “IN VIVO SELECTION” (priority 2000, published 2003).

Columns and labels:
wildtype mice = assay: Biochemical analysis of mouse serum after G418; assay type: in vivo; conditions: 335 mg/kg single i.p., serum 48 hrs after treatment
Procedure: (§1) BUN and CRE levels are diagnostic markers of kidney damage. […] In these transgenic animals G418 at the highest dose (1140 mg/kg) caused immediate toxicity resulting in death due to breath failure within 10 minutes after injection.

neo^R mice = assay: Biochemical analysis of mouse serum after G418; assay type: in vivo; conditions: 335 mg/kg single i.p., serum 48 hrs after treatment
Procedure: as §1

Neo −/− mice = assay: Acute toxicity of G418; assay type: in vivo, mouse; conditions: 10 days
Procedure: (§2) As in Example 1, applicants characterized the tissue specific expression of neoR mRNA and furthermore, investigated acute tissue specific toxicities of G418 in neo^R+/+ mice. The neoR mRNA reached highest levels in testis, intermediate in brain, kidney and liver. Low levels were detected in heart skeletal muscle and lungs and almost undetectable low levels in spleen. For acute toxicity determination the animals were treated with a single dose i.p. at concentrations starting at 47 mg/kg and increased thereafter by approximately 50% for each consecutive dose. The neoR expression in transgenic animals caused 10-fold increase of the approximate lethal dose of G418 (Table 4).

neo +/+ transgenic mice = assay: Acute toxicity of G418; assay type: in vivo, mouse; conditions: for survival / body weight, percentage of the body weight before the experiment: Neo +/+, 10 days
Procedure: as §2

CN[C@@H]1[C@@H](O)[C@@H](O[C@@H]2[C@@H](O)[C@H](O[C@H]3O[C@H]([C@@H](C)O)[C@@H](O)[C@H](O)[C@H]3N)[C@@H](N)C[C@H]2N)OC[C@]1(C)O [G418]
ALT (wildtype mice): 102.0 ± 9.4 u/l
BUN (wildtype mice): 96.0 ± 14.2 mg/dL
CRE (wildtype mice): 0.67 ± 0.05 mg/dL
ALT (neo^R mice): 54.3 ± 14.4 u/l
BUN (neo^R mice): 22.3 ± 0.9 mg/dL
CRE (neo^R mice): 0.23 ± 0.05 mg/dL
body weight, percentage of the body weight before the experiment (Neo −/− mice; 47 mg/kg single i.p.): 101 ± 1%
survival (Neo −/− mice; 47 mg/kg single i.p.): surv (surv, animals survived the 10 day period)
body weight, percentage of the body weight before the experiment (Neo −/− mice; 68 mg/kg single i.p.): 104 ± 4%
survival (Neo −/− mice; 68 mg/kg single i.p.): surv (surv, animals survived the 10 day period)
body weight, percentage of the body weight before the experiment (Neo −/− mice; 103 mg/kg single i.p.): 73 ± 6%
survival (Neo −/− mice; 103 mg/kg single i.p.): 8 days
body weight, percentage of the body weight before the experiment (Neo −/− mice; 153 mg/kg single i.p.): 73 ± 5%
survival (Neo −/− mice; 153 mg/kg single i.p.): 8 days
body weight, percentage of the body weight before the experiment (Neo −/− mice; 230 mg/kg single i.p.): 85 ± 2%
survival (Neo −/− mice; 230 mg/kg single i.p.): 4 days
body weight, percentage of the body weight before the experiment (Neo −/− mice; 345 mg/kg single i.p.): 97 ± 1%
survival (Neo −/− mice; 345 mg/kg single i.p.): 1 days
body weight, percentage of the body weight before the experiment (Neo −/− mice; 480 mg/kg single i.p.): 99 ± 1%
survival (Neo −/− mice; 480 mg/kg single i.p.): 1 days
body weight, percentage of the body weight before the experiment (Neo −/− mice; 778 mg/kg single i.p.): 100 ± 2%
survival (Neo −/− mice; 778 mg/kg single i.p.): 1 days
survival (neo +/+ transgenic mice; 47 mg/kg single i.p.): surv (surv, animals survived the 10 day period)
body weight, percentage of the body weight before the experiment (neo +/+ transgenic mice; 68 mg/kg single i.p.): 100 ± 1%
survival (neo +/+ transgenic mice; 68 mg/kg single i.p.): surv (surv, animals survived the 10 day period)
survival (neo +/+ transgenic mice; 103 mg/kg single i.p.): surv (surv, animals survived the 10 day period)
body weight, percentage of the body weight before the experiment (neo +/+ transgenic mice; 153 mg/kg single i.p.): 102 ± 3%
survival (neo +/+ transgenic mice; 153 mg/kg single i.p.): surv (surv, animals survived the 10 day period)
body weight, percentage of the body weight before the experiment (neo +/+ transgenic mice; 230 mg/kg single i.p.): 100 ± 2%
survival (neo +/+ transgenic mice; 230 mg/kg single i.p.): surv (surv, animals survived the 10 day period)
body weight, percentage of the body weight before the experiment (neo +/+ transgenic mice; 345 mg/kg single i.p.): 98 ± 4%
survival (neo +/+ transgenic mice; 345 mg/kg single i.p.): surv (surv, animals survived the 10 day period)
body weight, percentage of the body weight before the experiment (neo +/+ transgenic mice; 480 mg/kg single i.p.): 100 ± 1%
survival (neo +/+ transgenic mice; 480 mg/kg single i.p.): surv (surv, animals survived the 10 day period)
body weight, percentage of the body weight before the experiment (neo +/+ transgenic mice; 778 mg/kg single i.p.): 101 ± 1%
survival (neo +/+ transgenic mice; 778 mg/kg single i.p.): surv (surv, animals survived the 10 day period)
body weight, percentage of the body weight before the experiment (neo +/+ transgenic mice; 1140 mg/kg single i.p.): 100 ± 1%
survival (neo +/+ transgenic mice; 1140 mg/kg single i.p.): 1 days
increase of the approximate lethal dose (neo +/+ transgenic mice; neoR expression in transgenic animals vs wild type): 10 fold
time to death due to breath failure after injection (neo +/+ transgenic mice; neo^R transgenic animals, highest dose 1140 mg/kg): ≤ 10 min
